Test results: article PMC5999327 (Organic letters, 2018)
pIC50: −log10 of the molar value.

Experiments:
Cal27 cells [1] = assay: MTT cytotoxicity assay; assay type: cell-based; conditions: Homo sapiens, CAL-27, read-out: MTT (Cal27) IC50
Cal27 cells [2] = assay: whole cell HDAC assay with Boc-Lys; assay type: cell-based; conditions: Homo sapiens, CAL-27, read-out: HDAC (Cal27) IC50
Cal27 cells [3] = assay: western blotting of α-tubulin and histone H3 acetylation in Cal27; assay type: cell-based, human; conditions: western blot, Cal27, compared to control
HDAC1 = HDAC1 (Homo sapiens, UniProt Q13547); assay: biochemical HDAC assay with ZMAL substrate, HDAC1; conditions: read-out: HDAC1 IC50
HDAC1, sequence (Q13547 whole entry): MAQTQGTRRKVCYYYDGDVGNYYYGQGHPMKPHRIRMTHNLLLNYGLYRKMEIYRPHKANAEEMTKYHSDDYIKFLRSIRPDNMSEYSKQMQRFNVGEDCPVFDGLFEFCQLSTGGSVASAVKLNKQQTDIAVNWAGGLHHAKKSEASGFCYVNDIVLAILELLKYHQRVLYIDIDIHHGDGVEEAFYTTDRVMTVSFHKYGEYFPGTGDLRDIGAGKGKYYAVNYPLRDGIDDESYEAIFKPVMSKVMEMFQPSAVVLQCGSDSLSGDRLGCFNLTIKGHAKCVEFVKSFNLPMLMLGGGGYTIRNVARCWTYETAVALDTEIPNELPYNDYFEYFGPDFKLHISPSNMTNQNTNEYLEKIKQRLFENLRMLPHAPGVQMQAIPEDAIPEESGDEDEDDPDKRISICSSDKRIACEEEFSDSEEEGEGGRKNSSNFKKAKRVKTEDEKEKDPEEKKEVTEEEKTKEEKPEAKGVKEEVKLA

SMILES	pIC50 (Cal27 cells [1])	pIC50 (Cal27 cells [2])	acetylation of histone H3 (Cal27 cells [3])	acetylation of α-tubulin (Cal27 cells [3])	pIC50 (HDAC1)
CCCCN(Cc1ccc(C(=O)NO)cc1)C(=O)Nc1ccccc1 [Nexturastat A]	5.11	5.23	–	–	–
O=C(CCCCCCC(=O)Nc1ccccc1)NO [vorinostat]	–	–	increase in acetylation	increase in acetylation	–
CN1CCc2c(c3ccccc3n2Cc2ccc(C(=O)NO)cc2)C1 [Tubastatin A]	5.27	4.94	–	preferential hyperacetylation of α-tubulin	–
O=C(NO)c1ccc(CC(=O)N(CCO)c2ccccc2)cc1 [HPOB]	–	–	–	–	5.68
